Biological target: T1, Acetylcholinesterase (Bos taurus, UniProt P23795)
T1 sequence (P23795 whole entry): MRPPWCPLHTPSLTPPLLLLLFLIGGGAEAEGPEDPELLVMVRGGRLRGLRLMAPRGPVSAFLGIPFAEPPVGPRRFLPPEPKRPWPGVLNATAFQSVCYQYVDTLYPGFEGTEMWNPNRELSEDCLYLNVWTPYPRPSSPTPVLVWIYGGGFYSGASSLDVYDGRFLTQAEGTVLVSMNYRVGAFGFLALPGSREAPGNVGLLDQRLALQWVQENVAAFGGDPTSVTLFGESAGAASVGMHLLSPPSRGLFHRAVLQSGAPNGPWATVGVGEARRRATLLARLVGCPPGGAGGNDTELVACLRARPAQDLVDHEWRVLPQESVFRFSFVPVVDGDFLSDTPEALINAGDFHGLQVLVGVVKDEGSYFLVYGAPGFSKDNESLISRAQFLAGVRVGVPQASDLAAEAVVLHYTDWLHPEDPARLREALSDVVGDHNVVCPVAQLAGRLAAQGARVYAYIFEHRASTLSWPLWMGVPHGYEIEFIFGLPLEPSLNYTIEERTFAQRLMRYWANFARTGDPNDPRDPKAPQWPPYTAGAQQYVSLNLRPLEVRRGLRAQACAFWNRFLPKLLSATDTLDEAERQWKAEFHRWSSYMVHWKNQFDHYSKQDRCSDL
Experiment: Inhibition of acetylcholinesterase from bovine erythrocyte

Compound | IC50 [µM]
C=C[C@@H]1[C@H]2C=C(C(=O)O)C[C@]1(N(C)C)c1ccc(=O)[nH]c1C2 [LYCOPARIN A] | > 200
C=C[C@@H]1[C@H]2C=C(C(=O)O)C[C@]1(NC)c1ccc(=O)[nH]c1C2 [LYCOPARIN B] | > 200
C=C[C@@H]1[C@H]2C=C(CO)C[C@]1(N)c1ccc(=O)[nH]c1C2 [LYCOPARIN C] | 25
